Laboratory results: patent US11266743B2, “Peptide compositions and methods of use thereof” (priority 2017, dated 2022)
Square brackets hold non-standard residues; d marks the D form. Ends that are not written are not given here.

Columns and labels:
Format in all cases: cell-based
[1] = tested on: S. aureus; test: Radial diffusion in the presence of RBCs; set-up: key: The ↑ represents the improvement in performance that would be desired for a viable in vivo antimicrobial peptide; ↓: The symbol represents a regression in desired behavior; *=p<0.05; **=p<0.01; ***=p<0.001; conditions: change versus parent sequence; paired t-test
Description: Underlay agarose was prepared by adding 5 g of low EEO agarose and 0.03 g of TSB to 500 mL of 10 mM phosphate buffer (pH=7.4). Overlay agarose was prepared by adding 5 g of low EEO agarose and 30 g of TSB to 500 mL of 10 mM phosphate buffer (pH=7.4). Both solutions were heated until the agarose melted and then were autoclaved. To a rectangular, one-well plate, 20 mL of underlay agarose, inoculated with 8×10^6 CFUs of bacteria, was added. A sterile, 96-well plate replicator from Sigma-Aldrich was set in the molten agarose and removed one the agarose solidified. Antibiotic was prepared at 4 times the final desired concentration. For the antibiotic standard, a serial dilution of 3:4 across a 96-well plate was performed followed by 1:4 dilution with PBS. Otherwise, the peptide was diluted to 20 μM with RBCs and/or serum to give between 2% (1×10^8 cells/mL) and 20% (1×10^9 cells/mL). Solutions were incubated with gentle shaking for 30 minutes at 37° C. […]. Overlay was added, and the plate was incubated upside down overnight. Surface growth was cleared, the plates were sterilized with 25% methanol and 5% acetic acid. Zones of inhibition were photographed and analyzed using ImageJ. (FIG. 21)
(§1) The engineered peptide sequences and their derivation from parent sequences is shown, along with the underlying hypothesis described for the first set of peptides (Table 4) and the second set (Table 5). We performed statistical testing for performance in antimicrobial assays in the presence and absence of RBCs, as well as for cytotoxicity. The broth dilution results were tested using a two sample t-test (N=6-22). The radial diffusion results were tested using a paired t-test (N=4). The cytotoxicity results were tested using a paired t-test (N=3). The ↑ represents the improvement in performance that would be desired for a viable in vivo antimicrobial peptide. This corresponds to a decrease in MIC values (increased potency) and decreased cytotoxicity. The symbol represents a regression in desired behavior. (*=p<0.05, **=p<0.01, ***=p<0.001).

[2] = tested on: human RBCs; test: Hemolysis assay; set-up: key: The ↑ represents the improvement in performance that would be desired for a viable in vivo antimicrobial peptide; ↓: The symbol represents a regression in desired behavior; *=p<0.05; **=p<0.01; ***=p<0.001; conditions: change versus parent sequence; ↑ = improvement (decreased cytotoxicity); paired t-test
Description: Peptide was serially diluted in PBS starting at a concentration of 100 μM. The final volume of each peptide in each well was 50 μL. To each well, 50 μL of RBCs in PBS at 2×10^8 cells/mL was added. As a positive lysis control, 1% TRITON™ was used. The mixtures were incubated at 37° C. for 1 hour, after which they were centrifuged at 1000×g for 5 minutes. After centrifugation, 10 μL of supernatant was transferred to 90 μL of DI H2O in a fresh 96-well plate. The absorbance of released hemoglobin at 410 nm was recorded and the fractional hemolysis was calculated based on the 100% and 0% lysis controls. (FIGS. 22, 23, and 26)
as §1

[3] = tested on: HeLa, RAW264.7, HepG2, and MCF-7 cells; test: TAMRA delivery assay (flow cytometry, confocal microscopy); conditions: 0.5 μM CPP-TA + 4.5 μM CPP-C, 30 minutes at 4° C., 22° C., or 37° C.
Description: To determine the effect of the PNA cargo on delivery, we labeled CPPs, lacking the PNA705 cargo, with the fluorophore TAMRA on a C-terminal cysteine residue (CPP-TA) and measured delivery to multiple cell types. TAMRA-labelled CPPs, mixed with unlabeled CPPs at a 1:10 ratio in serum-free DMEM for a final concentration of 5 μM total peptide, was added to HeLa, RAW264.7, HepG2, and MCF-7 cells in 12-well cell culture plates and incubated for 30 minutes at 4° C., 22° C., or 37° C. prior to flow cytometric analysis (FIGS. 9-16). […] Delivery of TAMRA was verified by confocal microscopy for each cell type.
Hela, RAW264.7, HCT116, HepG2, and MCF-7 cells were plated in 12-well plates at 100,000 cells/well. After 24 hours, cells were gently washed in PBS, topped with 500 μl of CPP-TA solution containing 0.5 μM CPP-TA+4.5 uM CPP-C in sfDMEM without phenol red, and incubated for 30 min at either 4° C., 23° C., or 37° C. The incubation solution was aspirated and cells were treated with 100 μl 0.025% Trypsin for 3 minutes at 23° C. 500 μl DMEM containing 2% FBS, 125 nM Sytox Green, and 20 mM HEPES was used to suspend the cells. Cells were transferred to a filter-topped flow cytometry tube and analyzed on a BD™ LSR II flow cytometer. Cells displaying a normal morphology were gated and first analyzed for GFP fluorescence using the 488 nM laser. GFP negative cells were used to generate a histogram of TAMRA fluorescence, measured with the 543 nM laser.
Cells were treated as described above for the TAMRA delivery assay and immediately imaged to avoid artifacts resulting from fixation. The distribution of TAMRA and Sytox Green was analyzed using a confocal scanning Nikon Eclipse Ti2 inverted microscope using a 40× oil-immersion objective. Sytox Green was excited using the 488 nM laser and TAMRA was excited using the 543 nM laser.

[4] = tested on: Hela pTRE-LucIVS2 cells; test: ALAMARBLUE toxicity assay of CPP-PNA705; conditions: 10 μM CPP-PNA705 conjugate, after 24 hours
Description: CPP-PNA705 cytotoxicity was assessed using several methods known in the art. A Lactate Dehydrogenase (LDH) assay (FIG. 5A) measured the acute cytotoxicity and detects LDH released by cells because of membrane damage resulting from exposure to the CPPs. An ALAMARBLUE® assay (FIG. 5B) and a Bicinchoninic Acid (BCA) Assay (FIG. 5C) both measure the impact of exposure after 24 hours. In the ALAMARBLUE®, assay some reduction in metabolic activity was detected in Hela705 cells treated with 20 μM CPP-PNA705 concentrations for 1 hour.
Hela pTRE-LucIVS2 cells were plated in 96-well plates at 10,000 cells/well. After 24 hours, cells were treated with CPP constructs for 1 Hr in sfDMEM at 37° C., washed in PBS, and allowed to recover for 24 hours in 100 μl complete media. 10 μl ALAMARBLUE® (ThermoFisher) was added to each well and cells were incubated fo4r 2 Hrs at 37° C. Reduction of ALAMARBLUE® was determined by fluorescence at […].

[5] = tested on: Hela cells stably transfected with mCherry and GFP1-10; test: Split GFP assay (GFP-11 delivery); conditions: for GFP-11 delivery: all concentrations and temperatures studied; for GFP fluorescence level / GFP fluorescence above background: 10 μM
Description: To test the ability of CPPs to deliver other cargoes, specifically a protease-sensitive peptide cargo, we modified the well-known split-GFP assay. CPPs were tested for the ability to deliver the polar 16-residue GFP-11 peptide across the membrane barrier. This peptide rescues the fluorescence of the cytosolic endogenous, non-fluorescent GFP1-10 protein. Here, we stably transfected Hela cells with a plasmid containing the full length mCherry and the non-fluorescent GFP1-10. Following incubation with CPP-GFP-11 constructs at multiple concentrations and temperatures for 30 minutes in serum free DMEM, cells were analyzed by flow cytometry for mCherry and GFP fluorescence (FIG. 17). Live cells expressing mCherry (˜50% of the total cells) were gated and their GFP fluorescence was analyzed. Unlike the luciferase splice correction assay where a single corrected mRNA transcript serves as template for many molecules of functional luciferase, the split GFP assay is stoichiometric; a single GFP-11 peptide can bind to a single GFP1-10 protein producing a finite fluorescent response.
Hela cells were transfected with p_mCherry-GFP1-10 (Addgene plasmid #78591) using LIPOFECTAMINE® 3000 (ThermoFisher). Single mCherry positive cells were sorted into 96-well plates using a BD™ FACSARIA™ cell sorter and colonies were maintained under G418 selection at […]. Stably transfected cells were plated in 12-well plates at 100,000 cells/well and grown overnight in complete DMEM. Cells were washed in PBS and incubated in 500 μl of CPP-GFP-11 solution at variable concentrations at 23° C. and 37° C. for 30 minutes. The CPP-GFP-11 solution was aspirated and 100 μl of 0.025% trypsin solution was added to each well. After detachment, cells were suspended in 500 μL of PBS+2% FBS and 20 mM HEPES. Cells were analyzed using a BD™ LSRII flow cytometer. Cells displaying a normal morphology were gated and first analyzed for mCherry fluorescence using the 543 nM laser. mCherry+ cells were used to generate a histogram of GFP fluorescence measured with the 488 nM laser.

KKGWAKKLAFAFGKK [D-KON]
Radial Diffusion vs. S. aureus [1]: ↓Radial diffusion vs.

RRGWARRLRLAFAFGRR [RAT5]
Hemolysis [2]: ↓Hemolysis*
Radial Diffusion vs. S. aureus [1]: ↑Radial Diffusion vs.

GRKKRWFRRRRMKWKK [CPP-2]
TAMRA delivery (words, rank order) [3]: CPP-2»CPP-3=CPP-1>CPP-4>TAT=penetratin
reduction in metabolic activity [4]: 10%
GFP-11 delivery [5]: deliver GFP-11 to more cells than Tat and penetratin

RRGWARRLAFAFGRR [RAT4]
Hemolysis [2]: ↑Hemolysis*
Radial Diffusion vs. S. aureus [1]: ↑Radial Diffusion vs.

CPP-2-GFP-11: CPP-2 linked to the 16-residue GFP-11 peptide (SEQ ID NO: 12) (GRKKRWFRRRRMKWKKRDHMVLHEYVNAAGIT)
GFP fluorescence level [5]: background fluorescence levels

RRWARRLFFAYRR [RAT1]
Radial Diffusion vs. S. aureus [1]: ↑Radial Diffusion vs.

Tat(D)-GFP-11: D-amino acid version of Tat attached to normal L-amino acid GFP-11 (G[dR][dK][dK][dR][dR][dQ][dR][dR][dR][dP][dP][dQ]RDHMVLHEYVNAAGIT) [reference compound]
GFP fluorescence ([5]; concentrations lower than 40 μM): just above background

RRGWARRLAFAFGRR [D-RAT4]
Radial Diffusion vs. S. aureus [1]: ↑Radial Diffusion vs.

CPP-1(D)-GFP-11: D-amino acid version of CPP-1 attached to normal L-amino acid GFP-11 ([dR][dK][dK][dR][dW][dF][dR][dR][dR][dR][dP][dK][dW][dK][dK]RDHMVLHEYVNAAGIT)
D-form CPP versus L-form CPP, GFP-11 delivery [5]: outperformed CPP-1-GFP-11 under all other conditions

RRGWARRLAFAFAFGRR [RAT6]
Hemolysis [2]: ↓Hemolysis*

RRGWALRLVLAYGRR [RAT3]
Hemolysis [2]: ↓Hemolysis*

CPP-3-GFP-11: CPP-3 linked to the 16-residue GFP-11 peptide (SEQ ID NO: 12) (RIKRRFRRLRPKWKKRDHMVLHEYVNAAGIT)
GFP fluorescence level [5]: background fluorescence levels

RRWNLALTLTYYRR [RAT2]
Hemolysis [2]: ↓Hemolysis*

RRGWARRLAFGRR [RAT7]
Hemolysis [2]: ↑Hemolysis**

RRGWARRLFFAYGRR [D-DBS1]
Hemolysis [2]: ↓Hemolysis*
Radial Diffusion vs. S. aureus [1]: ↑Radial diffusion vs.

CPP-1-GFP-11: CPP-1 linked to the polar 16-residue GFP-11 peptide (SEQ ID NO: 12) (RKKRWFRRRRPKWKKRDHMVLHEYVNAAGIT)
GFP fluorescence above background ([5]; 37° C.): 44%
GFP fluorescence above background ([5]; room temperature): 72%

RRGWAFRRALAYGRR [D-GNS2]
Hemolysis [2]: ↓Hemolysis**
Radial Diffusion vs. S. aureus [1]: ↑Radial diffusion vs.

RIKRRFRRLRPKWKK [CPP-3]
TAMRA delivery (words, rank order) [3]: CPP-2»CPP-3=CPP-1>CPP-4>TAT=penetratin
reduction in metabolic activity [4]: little effect
GFP-11 delivery [5]: deliver GFP-11 to more cells than Tat and penetratin
